Source: US9181223B2, “2-aminopyrimidin-6-ones and analogs exhibiting anti-cancer and anti-proliferative activities” (Deciphera Pharmaceuticals, LLC, priority 2013, dated 2015)

Columns and labels:
[1] = system: osteoclast precursors; test: Osteoclast tartrate-resistant acid phosphatase assay; assay type: cell-based; details: tartrate-resistant acid phosphatase activity, RANKL and M-CSF, 7-14 days
Protocol: Osteoclast Tartrate-Resistant Acid Phosphatase Assay
A serial dilution of test compound was dispensed into a 384-well black clear bottom plate (Nalge Nunc International, Rochester, N.Y.). Compound was diluted by the addition of DMEM media supplemented with 10% characterized fetal bovine serum (Invitrogen, Carlsbad, Calif.). Diluted compound was transferred to a 384-well black clear bottom plate. Two-thousand five hundred osteoclast precursors (Lonza, Walkersville, Md.) were added per well in growth media containing Receptor Activator of Nuclear Factor Kappa-beta ligand (RANKL) and M-CSF (R&D Systems, Minneapolis, Minn.). Plates were incubated for 7-14 days at 37 degrees Celsius, 5% CO2, and 95% humidity to allow differentiation of osteoclast precursors. At the end of the incubation period, 10 μL of supernatant from each well was transferred to a clear 384-well plate. Tartrate-resistant acid phosphatase activity in the supernatant samples was determined using an acid phosphatase assay kit (Sigma, St. Louis, Mo.). Absorbance was measured at 550 nm using a plate reader. Data was analyzed using Prism software (Graphpad, San Diego, Calif.) to calculate IC50 values.

[2] = molecular target: T1, unphosphorylated c-KIT kinase (uKIT, Seq. ID no. 2) (Homo sapiens, UniProt P10721); test: uKit kinase assay (ADP production coupled to pyruvate kinase/lactate dehydrogenase); assay type: biochemical; details: enzymatic assay, ATP 2000 μM; read-out: uKIT
T1 construct: uKit with N-terminal GST fusion used for screening
T1 sequence (P10721 with tags, fused parts or gaps): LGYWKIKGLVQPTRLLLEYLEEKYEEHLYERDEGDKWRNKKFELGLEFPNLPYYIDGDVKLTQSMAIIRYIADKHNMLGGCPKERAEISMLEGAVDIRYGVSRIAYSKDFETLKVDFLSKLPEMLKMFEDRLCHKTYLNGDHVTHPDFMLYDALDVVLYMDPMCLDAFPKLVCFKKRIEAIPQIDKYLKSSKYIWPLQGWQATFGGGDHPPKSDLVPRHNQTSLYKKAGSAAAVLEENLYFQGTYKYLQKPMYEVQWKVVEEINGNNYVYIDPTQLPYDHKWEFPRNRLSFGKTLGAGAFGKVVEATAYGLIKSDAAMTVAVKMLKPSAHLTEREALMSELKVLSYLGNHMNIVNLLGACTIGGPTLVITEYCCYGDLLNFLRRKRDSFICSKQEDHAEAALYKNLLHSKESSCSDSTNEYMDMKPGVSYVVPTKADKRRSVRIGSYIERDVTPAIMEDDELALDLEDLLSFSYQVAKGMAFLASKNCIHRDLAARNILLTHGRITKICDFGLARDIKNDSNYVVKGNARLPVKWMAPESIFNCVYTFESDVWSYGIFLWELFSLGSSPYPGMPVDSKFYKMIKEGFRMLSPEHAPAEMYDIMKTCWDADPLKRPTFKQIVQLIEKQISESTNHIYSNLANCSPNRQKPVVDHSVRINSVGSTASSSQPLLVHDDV
Protocol: In this assay, the oxidation of NADH (thus the decrease at A340 nm) was continuously monitored spectrophometrically. […] The inhibition reaction was started by mixing serial diluted test compound with the above reaction mixture. The absorption at 340 nm was monitored continuously for 4 hours at 30° C. on Synergy 2 plate reader (BioTech).

[3] = molecular target: T2, unphosphorylated c-FMS kinase (uFMS, Seq. ID no. 1) (Homo sapiens, UniProt P07333); test: uFMS kinase assay (ADP production coupled to pyruvate kinase/lactate dehydrogenase); assay type: biochemical; details: enzymatic assay, ATP 500 μM
T2 construct: purchased Millipore
T2 sequence (P07333 538-972): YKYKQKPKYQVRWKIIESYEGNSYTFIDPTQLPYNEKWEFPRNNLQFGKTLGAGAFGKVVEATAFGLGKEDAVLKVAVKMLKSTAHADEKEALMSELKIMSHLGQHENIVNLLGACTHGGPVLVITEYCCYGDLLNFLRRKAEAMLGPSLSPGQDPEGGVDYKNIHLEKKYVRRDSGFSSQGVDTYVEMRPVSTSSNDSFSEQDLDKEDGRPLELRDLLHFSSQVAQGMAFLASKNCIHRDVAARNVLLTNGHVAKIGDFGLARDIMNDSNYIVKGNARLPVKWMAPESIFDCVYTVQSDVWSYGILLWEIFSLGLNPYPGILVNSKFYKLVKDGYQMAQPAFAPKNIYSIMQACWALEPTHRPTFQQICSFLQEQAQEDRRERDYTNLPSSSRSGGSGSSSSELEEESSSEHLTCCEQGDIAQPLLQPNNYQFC
Protocol: uFMS Kinase (Seq. ID No. 1) Assay
In this assay, the oxidation of NADH (thus the decrease at A340 nm) was continuously monitored spectrophometrically. The reaction mixture (100 μL) contained FMS (purchased from Millipore) (10 nM), polyE4Y (1 mg/mL), MgCl2 (10 mM), pyruvate kinase (4 units), lactate dehydrogenase (0.7 units), phosphoenol pyruvate (1 mM), NADH (0.28 mM) and ATP (500 μM) in 90 mM Tris buffer containing 0.2% octyl-glucoside and 1% DMSO, pH 7.5. The inhibition reaction was started by mixing serial diluted test compound with the above reaction mixture. The absorption at 340 nm was monitored continuously for 4 hours at 30° C. on Synergy 2 plate reader. The reaction rate was calculated using the 3 to 4 h time frame. Percent inhibition was obtained by comparison of reaction rate with that of a control (i.e. in the absence of test compound). IC50 values were calculated from a series of percent inhibition values determined at a range of inhibitor concentrations using software routines as implemented in the GraphPad Prism software package.

[4] = system: M-NFS-60 cells; test: M-NFS-60 cell proliferation assay (resazurin); assay type: cell-based; details: 67 h incubation
Protocol: M-NFS-60 cells (catalog #CRL-1838) were obtained from the American Type Culture Collection (ATCC, Manassas, Va.). Briefly, cells were grown in suspension in RPMI 1640 medium supplemented with 10% characterized fetal bovine serum (Invitrogen, Carlsbad, Calif.), 0.05 mM 2-mercaptoethanol, and 20 ng/mL mouse recombinant macrophage colony stimulating factor (M-CSF) at 37° C., 5% CO2, and 95% humidity. Cells were allowed to expand until reaching saturation at which point they were subcultured or harvested for assay use.
M-NFS-60 Cell Proliferation Assay
A serial dilution of test compound was dispensed into a 384-well black clear bottom plate (Corning, Corning, N.Y.). Two thousand five hundred cells were added per well in 50 μL complete growth medium. Plates were incubated for 67 h at 37° C., 5% CO2, and 95% humidity. At the end of the incubation period 10 μL of a 440 µM solution of resazurin (Sigma, St. Louis, Mo.) in PBS was added to each well and incubated for an additional 5 h at 37° C., 5% CO2, and 95% humidity. Plates were read on a Synergy2 reader (Biotek, Winooski, Vt.) using an excitation of 540 nm and an emission of 600 nm. IC50 values were calculated from a series of percent inhibition values determined at a range of inhibitor concentrations using software routines as implemented in the GraphPad Prism software package.

[5] = molecular target: T3, phospho-FMS in THP-1 cells (Homo sapiens, UniProt P07333); test: Phospho-FMS ELISA assay in THP-1 cells; assay type: cell-based; details: 4 hours compound, M-CSF stimulation 5 minutes, read-out: pFMS inhibition in THP-1 cells
T3 construct: endogenous in cells; host or cells: THP-1 (ATCC TIB-202)
T3 sequence (P07333 20-972): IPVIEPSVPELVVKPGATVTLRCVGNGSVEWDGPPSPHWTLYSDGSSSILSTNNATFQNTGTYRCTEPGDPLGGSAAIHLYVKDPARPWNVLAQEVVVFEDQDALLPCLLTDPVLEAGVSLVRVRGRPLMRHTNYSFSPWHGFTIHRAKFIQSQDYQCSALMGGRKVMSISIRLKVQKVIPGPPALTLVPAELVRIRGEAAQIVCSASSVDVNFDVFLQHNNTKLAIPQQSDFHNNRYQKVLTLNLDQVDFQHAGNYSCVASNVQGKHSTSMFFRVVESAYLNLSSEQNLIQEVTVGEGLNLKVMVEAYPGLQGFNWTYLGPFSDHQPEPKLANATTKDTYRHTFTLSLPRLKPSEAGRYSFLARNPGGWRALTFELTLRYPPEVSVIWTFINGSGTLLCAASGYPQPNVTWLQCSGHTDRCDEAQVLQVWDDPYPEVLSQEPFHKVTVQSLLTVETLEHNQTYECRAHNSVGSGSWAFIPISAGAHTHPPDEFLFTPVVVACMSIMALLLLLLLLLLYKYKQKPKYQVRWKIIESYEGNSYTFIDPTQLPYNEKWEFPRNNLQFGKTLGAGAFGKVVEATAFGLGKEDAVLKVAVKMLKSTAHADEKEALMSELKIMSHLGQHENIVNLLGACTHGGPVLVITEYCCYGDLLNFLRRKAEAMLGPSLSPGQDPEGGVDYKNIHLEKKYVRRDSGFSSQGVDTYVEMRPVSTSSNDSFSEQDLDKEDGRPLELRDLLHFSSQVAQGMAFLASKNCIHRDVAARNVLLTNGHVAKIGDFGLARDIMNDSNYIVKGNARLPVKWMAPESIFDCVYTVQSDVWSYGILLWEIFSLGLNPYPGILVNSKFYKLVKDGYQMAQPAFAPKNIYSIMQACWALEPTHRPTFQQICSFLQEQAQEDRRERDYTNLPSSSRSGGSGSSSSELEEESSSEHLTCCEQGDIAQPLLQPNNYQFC
Protocol: Cells were allowed to expand until reaching 70-95% confluency at which point they were subcultured or harvested for assay use.
In a separate 96 well black clear bottom plate, one hundred and fifty thousand THP-1 cells were added per well in 100 μL in assay medium. Fifty microliters of diluted compound was then added to the cells. Plates were incubated for 4 hours at 37 degrees Celsius, 5% CO2, 95% humidity. […] Lysates were prepared and used to perform the phospho-FMS ELISA as described by the manufacturer (catalog #DYC3268, R & D Systems, Minneapolis, Minn.). GraphPad Prism was used to calculate IC50 values obtained from data generated from the ELISA assay.

[6] = molecular target: T4, unphosphorylated PDGFRβ kinase (uPDGFRβ, Seq. ID No. 3) (Homo sapiens, UniProt P09619); test: uPDGFRβ kinase assay (ADP production coupled to pyruvate kinase/lactate dehydrogenase); assay type: biochemical; details: enzymatic assay, ATP 500 μM
T4 construct: purchased DeCode
T4 sequence (P09619 557-1106): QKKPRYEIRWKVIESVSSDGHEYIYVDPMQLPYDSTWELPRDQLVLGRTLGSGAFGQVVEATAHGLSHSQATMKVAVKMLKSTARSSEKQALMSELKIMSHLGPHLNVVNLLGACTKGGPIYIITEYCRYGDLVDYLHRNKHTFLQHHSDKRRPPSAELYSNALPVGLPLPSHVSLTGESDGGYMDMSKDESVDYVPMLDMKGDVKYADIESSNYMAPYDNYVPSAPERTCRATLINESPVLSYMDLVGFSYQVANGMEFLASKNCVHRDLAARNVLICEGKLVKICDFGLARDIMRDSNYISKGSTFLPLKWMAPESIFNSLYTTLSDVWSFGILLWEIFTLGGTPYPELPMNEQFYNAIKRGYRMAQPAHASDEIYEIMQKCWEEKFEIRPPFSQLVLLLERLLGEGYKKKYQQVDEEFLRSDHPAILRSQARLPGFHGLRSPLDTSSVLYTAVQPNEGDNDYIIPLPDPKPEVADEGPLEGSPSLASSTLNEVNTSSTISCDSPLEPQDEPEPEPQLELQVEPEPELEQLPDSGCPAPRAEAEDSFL
Protocol: Unphosphorylated […]β) Kinase (Seq. ID No. 3) Assay Activity of unphosphorylated PDGFRβ kinase ([…] No. 3) was determined by following the production of ADP from the kinase reaction with ATP and poly E4Y as substrates through coupling with the pyruvate kinase/lactate dehydrogenase system (e.g., Schindler et al. Science (2000) 289: 1938-1942). In this assay, the oxidation of NADH (thus the decrease at A340 nm) was continuously monitored spectrophometrically. The reaction mixture (100 μL) contained PDGFRβ (DeCode, 15.7 nM), polyE4Y (2.5 mg/mL), MgCl2 (10 mM), pyruvate kinase (4 units), lactate dehydrogenase (0.7 units), phosphoenol pyruvate (1 mM) and NADH (0.28 mM) and ATP (500 μM) in a 90 mM Tris buffer containing 0.2% octyl-glucoside and 1% DMSO, at pH 7.5. The inhibition reaction was started by mixing serial diluted test compound with the above reaction mixture. The absorption at 340 nm was monitored continuously for 4 h at 30° C. on a Polarstar Optima or Synergy 2 plate reader. The reaction rate was calculated using the 1.5 to 2.5 h time frame. Percent inhibition was obtained by comparison of reaction rate with that of a control (i.e. with no test compound). IC50 values were calculated from a series of percent inhibition values determined at a range of inhibitor concentrations using software routines as implemented in the GraphPad Prism software package.

Row | Structure (SMILES) | IC50 [1] | IC50 [2] | IC50 [3] | IC50 [5] | IC50 [6] | IC50 [4]
1 | Cc1nc(-c2cnc(N3CC[C@H](N(C)C)C3)[nH]c2=O)ccc1Oc1ccnc(-c2cnn(C)c2)c1 [Example 24, (S)-2-(3-(dimethylamino)pyrrolidin-1-yl)-5-(6-methyl-5-((2-(1-methyl-1H-pyrazol-4-yl)pyridin-4-yl)oxy)pyridin-2-yl)pyrimidin-4(3H)-one] | 0.1 to 1 µM | > 1 µM | 0.1 to 1 µM | – | > 1 µM | 0.1 to 1 µM
2 | CCNc1ncc(-c2ccc(Oc3ccnc(-c4cnn(C)c4)c3)c(C)n2)c(=O)n1C [Example 25, 2-(ethylamino)-3-methyl-5-(6-methyl-5-((2-(1-methyl-1H-pyrazol-4-yl)pyridin-4-yl)oxy)pyridin-2-yl)pyrimidin-4(3H)-one] | 0.01 to 0.1 µM | 0.1 to 1 µM | 0.01 to 0.1 µM | 0.01 to 0.1 µM | > 1 µM | 0.01 to 0.1 µM
3 | Cc1nc(-c2cnc(NC(C)(C)C)[nH]c2=O)ccc1Oc1ccnc(-c2cnn(C)c2)c1 [Example 28, 2-(tert-butylamino)-5-(6-methyl-5-((2-(1-methyl-1H-pyrazol-4-yl)pyridin-4-yl)oxy)pyridin-2-yl)pyrimidin-4(3H)-one] | 0.01 to 0.1 µM | 0.01 to 0.1 µM | < 0.01 µM | 0.01 to 0.1 µM | 0.01 to 0.1 µM | 0.01 to 0.1 µM
4 | Cc1nc(-c2cnc(NCC(C)(C)C)[nH]c2=O)ccc1Oc1ccnc(-c2cnn(C)c2)c1 [Example 29, 5-(6-methyl-5-((2-(1-methyl-1H-pyrazol-4-yl)pyridin-4-yl)oxy)pyridin-2-yl)-2-(neopentylamino)pyrimidin-4(3H)-one] | 0.01 to 0.1 µM | 0.01 to 0.1 µM | < 0.01 µM | 0.01 to 0.1 µM | 0.1 to 1 µM | 0.01 to 0.1 µM

Continued, in another order:

Row | IC50 [1] | IC50 [2] | IC50 [3] | IC50 [5] | IC50 [6] | Structure (SMILES) | IC50 [4]
5 | < 0.01 µM | > 1 µM | 0.01 to 0.1 µM | 0.1 to 1 µM | > 1 µM | COC[C@@H](C)Nc1ncc(-c2ccc(Oc3ccnc(-c4cnn(C)c4)c3)c(C)n2)c(=O)[nH]1 [Example 22, (R)-2-((1-methoxypropan-2-yl)amino)-5-(6-methyl-5-((2-(1-methyl-1H-pyrazol-4-yl)pyridin-4-yl)oxy)pyridin-2-yl)pyrimidin-4(3H)-one] | 0.01 to 0.1 µM
6 | 0.01 to 0.1 µM | > 1 µM | 0.01 to 0.1 µM | – | > 1 µM | COC[C@H]1CCCN1c1ncc(-c2ccc(Oc3ccnc(-c4cnn(C)c4)c3)c(C)n2)c(=O)[nH]1 [Example 23, (R)-2-(2-(methoxymethyl)pyrrolidin-1-yl)-5-(6-methyl-5-((2-(1-methyl-1H-pyrazol-4-yl)pyridin-4-yl)oxy)pyridin-2-yl)pyrimidin-4(3H)-one] | 0.01 to 0.1 µM
7 | < 0.01 µM | 0.01 to 0.1 µM | – | – | 0.01 to 0.1 µM | Cc1cc(-c2cnc(NC(C)C)[nH]c2=O)ncc1Oc1ccnc(-c2cnn(C)c2)c1 [Example 18, 2-(isopropylamino)-5-(4-methyl-5-((2-(1-methyl-1H-pyrazol-4-yl)pyridin-4-yl)oxy)pyridin-2-yl)pyrimidin-4(3H)-one] | < 0.01 µM
8 | 0.01 to 0.1 µM | > 1 µM | 0.01 to 0.1 µM | 0.01 to 0.1 µM | > 1 µM | Cc1nc(-c2cnc(N3CCC(F)(F)C3)[nH]c2=O)ccc1Oc1ccnc(-c2cnn(C)c2)c1 [Example 30, 2-(3,3-difluoropyrrolidin-1-yl)-5-(6-methyl-5-((2-(1-methyl-1H-pyrazol-4-yl)pyridin-4-yl)oxy)pyridin-2-yl)pyrimidin-4(3H)-one] | 0.1 to 1 µM
9 | < 0.01 µM | > 1 µM | – | – | 0.1 to 1 µM | Cc1nc(-c2cnc(N3CCCC3)n(C)c2=O)ccc1Oc1ccnc(-c2cnn(C)c2)c1 [Example 16, 3-methyl-5-(6-methyl-5-((2-(1-methyl-1H-pyrazol-4-yl)pyridin-4-yl)oxy)pyridin-2-yl)-2-(pyrrolidin-1-yl)pyrimidin-4(3H)-one] | < 0.01 µM
